# Target: T1, wild-type HIV-1 protease (Human immunodeficiency virus type 1 group M subtype B, UniProt P04585)
# T1 construct: Escherichia coli expressed wild-type HIV-1 protease protein
# Assay: Assay for Inhibition of Microbial Expressed HIV Protease (peptide substrate cleavage, LC-MS/MS readout)
# Type: biochemical
# Details: E. coli expressed wild-type HIV-1 protease, mean of at least two independent experiments, read-out: HIV Pr Enzyme HIV1 PR IC50
# In short: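 E. coli-expressed wild-type HIV-1 protease ([…]) was preincubated with inhibitor 30 min at room temperature in pH 5.5 acetate buffer (100 mM NaCl, 0.1% BSA). Then 400 μM octapeptide substrate was added and reacted 1 h at 30 °C; inhibition came from LC-MS/MS product peak areas, mean of ≥2 experiments.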
row,Structure (SMILES),IC50 [nM]
1,"N=C1NC(c2ccccc2)(c2ccccc2)C(=O)N1Cc1ccc(C(F)(F)F)c(C(=O)N2CCNC(=O)C2)c1 [Compound 160, 4-({5-[(2-imino-5-oxo-4,4-diphenylimidazolidin-1-yl)methyl]-2-(trifluoromethyl)phenyl}-carbonyl)piperazin-2-one]",20.2
2,"COC(=O)N1CCN(C(=O)c2cc(CN3C(=N)NC(c4ccccc4)(c4ccccc4)C3=O)ccc2C(F)(F)F)CC1 [Compound 161, methyl 4-({5-[(2-imino-5-oxo-4,4-diphenylimidazolidin-1-yl)methyl]-2-(trifluoromethyl)phenyl}-carbonyl)piperazine-1-carboxylate]",25.2
3,"CC(C)CCC1(c2ccccc2)NC(=N)N(Cc2ccc(C(F)(F)F)c(C(=O)N3CCC(F)(F)C3)c2)C1=O (stereo not shown) [Compound 162, 3-{3-[(3,3-difluoropyrrolidin-1-yl)carbonyl]-4-(trifluoromethyl)-benzyl}-2-imino-5-(3-methylbutyl)-5-phenylimidazolidin-4-one]",32.2
4,"CC(C)CCC1(c2ccc(F)cc2)NC(=N)N(Cc2ccc(C(F)(F)F)c(C(=O)N3CC[C@@]4(c5ccccc5)NOC[C@H]4C3)c2)C1=O (stereo partly drawn) [Compound 163, 5-(4-fluorophenyl)-2-imino-5-(3-methylbutyl)-3-[3-{[(3aS,7aR)-7a-phenylhexahydro-isoxazolo[4,3-c]pyridin-5(3H)-yl]carbonyl}-4-(trifluoromethyl)benzyl] imidazolidin-4-one]",33.3
5,"CC(C)CCC1(c2ccc(F)cc2)NC(=N)N(Cc2ccc(C(F)(F)F)c(C(=O)N3CCc4c(cnn4-c4ccccc4)C3)c2)C1=O (stereo not shown) [Compound 164, 5-(4-fluorophenyl)-2-imino-5-(3-methylbutyl)-3-{3-[(1-phenyl-1,4,6,7-tetrahydro-5H-pyrazolo[4,3-c]pyridin-5-yl)carbonyl]-4-(trifluoromethyl)benzyl} imidazolidin-4-one]",34.1
6,"COc1ccc2c(c1)CCN(C(=O)c1cc(CN3C(=N)NC(c4ccc(F)cc4)(c4ccc(F)cc4)C3=O)ccc1C(F)(F)F)CC2 [Compound 165, 5.5-bis(4-fluorophenyl)-2-imino-3-{3-[(7-methoxy-1,2,4,5-tetrahydro-3H-3-benzazepin-3-yl)carbonyl]-4-(trifluoromethyl)benzyl} imidazolidin-4-one]",34.1
7,"CC(C)CCC1(c2ccccc2)NC(=N)N(Cc2ccc(C(F)(F)F)c(C(=O)N3CCC3)c2)C1=O (stereo not shown) [Compound 166, 3-[3-(azetidin-1-ylcarbonyl)-4-(trifluoromethyl)benzyl]-2-imino-5-(3-methylbutyl)-5-phenylimidazolidin-4-one]",34.9
8,"CC(C)CCC1(c2ccc(F)cc2)NC(=N)N(Cc2ccc(C(F)(F)F)c(C(=O)N3Cc4cncnc4C3)c2)C1=O (stereo not shown) [Compound 167, 3-[3-(5,7-dihydro-6H-pyrrolo[3,4-d]pyrimidin-6-ylcarbonyl)-4-(trifluoromethyl)benzyl]-5-(4-fluorophenyl)-2-imino-5-(3-methylbutyl)imidazolidin-4-one]",36.9
9,"CC(C)CCC1(c2ccc(F)cc2)NC(=N)N(Cc2ccc(C(F)(F)F)c(C(=O)N3Cc4nccnc4C3)c2)C1=O (stereo not shown) [Compound 168, 3-[3-(5,7-dihydro-6H-pyrrolo[3,4-b]pyrazin-6-ylcarbonyl)-4-(trifluoromethyl)benzyl]-5-(4-fluorophenyl)-2-imino-5-(3-methylbutyl)imidazolidin-4-one]",38.6
10,CC(C)CCC1(c2ccc(F)cc2)NC(=N)N(Cc2ccc(C(F)(F)F)c(C(=O)N3C[C@H]4OCc5cnnn5[C@H]4C3)c2)C1=O (stereo partly shown) [Compound 169],38.6
11,"CC(C)CCC1(c2ccccc2)NC(=N)N(Cc2ccc(C(F)(F)F)c(C(=O)N3CCCC3)c2)C1=O (stereo not shown) [Compound 170, 2-imino-5-(3-methylbutyl)-5-phenyl-3-[3-(pyrrolidin-1-ylcarbonyl)-4-(trifluoromethyl)benzyl] imidazolidin-4-one]",40.3
12,"N=C1NC(c2ccccc2)(c2ccccc2)C(=O)N1Cc1ccc(C(F)(F)F)c(C(=O)N2CCN(c3ncccn3)CC2)c1 [Compound 171, 2-imino-5,5-diphenyl-3-{3-[(4-pyrimidin-2-ylpiperazin-1-yl)carbonyl]-4-(trifluoromethyl)-benzyl}imidazolidin-4-one]",53
13,"N=C1NC(c2ccc(F)cc2)(c2ccc(F)cc2)C(=O)N1Cc1ccc(C(F)(F)F)c(C(=O)N2CCC(F)(F)C2)c1 [Compound 172, 3-{3-[(3,3-difluoropyrrolidin-1-yl)carbonyl]-4-(trifluoromethyl)-benzyl}-5,5-bis(4-fluorophenyl)-2-iminoimidazolidin-4-one]",53.3
14,"N=C1NC(c2ccc(F)cc2)(c2ccc(F)cc2)C(=O)N1Cc1ccc(C(F)(F)F)c(C(=O)N2CCC2)c1 [Compound 173, 3-[3-(azetidin-1-ylcarbonyl)-4-(trifluoromethyl)benzyl]-5,5-bis(4-fluorophenyl)-2-iminoimidazolidin-4-one]",53.3
15,"CC(C)C[C@@]1(c2ccccc2)NC(=N)N(Cc2ccc(C(F)(F)F)c(C(=O)N3Cc4nccnc4C3)c2)C1=O [Compound 174, (5S)-3-[3-(5,7-dihydro-6H-pyrrolo[3,4-b]pyrazin-6-ylcarbonyl)-4-(trifluoromethyl)-benzyl]-2-imino-5-(2-methylpropyl)-5-phenylimidazolidin-4-one]",54.9
16,CC(C)CCC1(c2ccc(F)cc2)NC(=N)N(Cc2ccc(C(F)(F)F)c(C(=O)N3C[C@@H]4ON=C(Nc5ccccc5)[C@@H]4C3)c2)C1=O (stereo partly shown) [Compound 175],59.7
17,"CC(C)CCC1(c2ccccc2)NC(=N)N(Cc2ccc(C(F)(F)F)c(C(=O)N3CCC(C)(C)C3)c2)C1=O (stereo not shown) [Compound 176, 3-{3-[(3,3-dimethylpyrrolidin-1-yl)carbonyl]-4-(trifluoromethyl)benzyl}-2-imino-5-(3-methylbutyl)-5-phenylimidazolidin-4-one]",63.4
18,"CC(C)CC1(c2ccccc2)NC(=N)N(Cc2ccc(C(F)(F)F)c(C(=O)N3CCC(F)(F)C3)c2)C1=O (stereo not shown) [Compound 177, 3-{3-[(3,3-difluoropyrrolidin-1-yl)carbonyl]-4-(trifluoromethyl)benzyl}-2-imino-5-(2-methylpropyl)-5-phenylimidazolidin-4-one]",70.3
19,"CC(=O)NCc1cc2c(o1)CCN(C(=O)c1cc(CN3C(=N)NC(CCC(C)C)(c4ccc(F)cc4)C3=O)ccc1C(F)(F)F)C2 (stereo not shown) [Compound 178, N-[(5-{[5-{[4-(4-fluorophenyl)-2-imino-4-(3-methylbutyl)-5-oxoimidazolidin-1-yl]methyl}-2-(trifluoromethyl)phenyl]carbonyl}-4,5,6,7-tetrahydrofuro[3,2-c]pyridin-2-yl)methyl]acetamide]",71.6
20,"CC(C)CC1(c2ccccc2)NC(=N)N(Cc2ccc(C(F)(F)F)c(C(=O)N3CCC3)c2)C1=O (stereo not shown) [Compound 179, 3-[3-(azetidin-1-ylcarbonyl)-4-(trifluoromethyl)benzyl]-2-imino-5-(2-methylpropyl)-5-phenylimidazolidin-4-one]",78.6
21,"N=C1NC(c2ccc(F)cc2)(c2ccc(F)cc2)C(=O)N1Cc1ccc(C(F)(F)F)c(C(=O)N2CCCC2)c1 [Compound 180, 5,5-bis(4-fluorophenyl)-2-imino-3-[3-(pyrrolidin-1-ylcarbonyl)-4-(trifluoromethyl)benzyl] imidazolidin-4-one]",78.8
22,"CC1(C)CCN(C(=O)c2cc(CN3C(=N)NC(c4ccc(F)cc4)(c4ccc(F)cc4)C3=O)ccc2C(F)(F)F)C1 [Compound 181, 3-{3-[(3,3-dimethylpyrrolidin-1-yl)carbonyl]-4-(trifluoromethyl)benzyl}-5,5-bis(4-fluorophenyl)-2-iminoimidazolidin-4-one]",89.8
23,"N#Cc1ncc2c(n1)CN(C(=O)c1cccc(CN3C(=N)NC(c4ccc(F)cc4)(c4ccc(F)cc4)C3=O)c1)C2 [Compound 182, 6-[(3-{[4,4-bis(4-fluorophenyl)-2-imino-5-oxoimidazolidin-1-yl]methyl}phenyl)carbonyl]-6,7-dihydro-5H-pyrrolo[3,4-d]pyrimidine-2-carbonitrile]",1.7
24,"COC(=O)Nc1ncc2c(n1)CN(C(=O)c1cccc(CN3C(=N)N[C@](CCC(C)C)(c4ccccc4)C3=O)c1)C2 [Compound 183, methyl {6-[(3-{[(4R)-2-imino-4-(3-methylbutyl)-5-oxo-4-phenylimidazolidin-1-yl]methyl}phenyl)carbonyl]-6,7-dihydro-5H-pyrrolo[3,4-d]pyrimidin-2-yl}carbamate]",2.26
25,"N=C1NC(c2ccccc2)(c2ccccc2)C(=O)N1Cc1cccc(C(=O)N2Cc3[nH]nc(C(F)(F)F)c3C2)c1 [Compound 184, 2-imino-5,5-diphenyl-3-(3-{[3-(trifluoromethyl)-4,6-dihydropyrrolo[3,4-c]pyrazol-5(1H)-yl]carbonyl}benzyl) imidazolidin-4-one]",2.74
26,"C[C@H](c1cccc(C(=O)N2Cc3nccnc3C2)c1)N1C(=N)NC(c2ccccc2)(c2ccccc2)C1=O [Compound 185, 3-{(1R)-1-[3-(5,7-dihydro-6H-pyrrolo[3,4-b]pyrazin-6-ylcarbonyl)phenyl]ethyl}-2-imino-5,5-diphenylimidazolidin-4-one]",40.5
27,"C[C@H](c1cccc(C(=O)N2Cc3nccnc3C2)c1)N1C(=N)NC(c2ccc(F)cc2)(c2ccc(F)cc2)C1=O [Compound 186, 3-{(1R)-1-[3-(5,7-dihydro-6H-pyrrolo[3,4-b]pyrazin-6-ylcarbonyl)phenyl]ethyl}-5,5-bis(4-fluorophenyl)-2-iminoimidazolidin-4-one]",3.24
28,"C[C@H](c1cccc(C(=O)N2Cc3ccccc3C2)c1)N1C(=N)NC(c2ccccc2)(c2ccccc2)C1=O [Compound 187, 3-{(1R)-1-[3-(1,3-dihydro-2H-isoindol-2-ylcarbonyl)phenyl]ethyl}-2-imino-5,5-diphenylimidazolidin-4-one]",3.67
